# Like-named read-outs stand apart in the source and are kept apart here.
# Key:
# [1] = Plasma pharmacokinetics of AZD5363 after a single dose and multiple doses; format: in vivo, human; settings: for AUC / Cmax / Vd/F / C ss,max: geometric mean (CV%); for Tmax / t ss,max / t half: median (range); for Vd/F: read-out: V ss/F
# Source text: […] area under the plasma concentration–time curve (AUC), maximum plasma (peak) drug concentration (Cmax), time to reach Cmax (tmax), apparent plasma clearance (CL/F), and oral volume of distribution at steady state (Vss/F).
# [2] = test system: Japanese patients with advanced solid malignancies
# Procedure: This was a phase 1, open-label, multicenter, dose escalation study. […] All doses were required to be taken in a fasted state (no caloric intake from 2 h before dosing to 1 h after dosing).
# All evaluations during the bid dosing regimen were conducted in 21-day assessment cycles. Patients were enrolled to ensure a minimum of three and a maximum of six evaluable patients per cohort. Dose escalation and de-escalation were determined by the number of dose-limiting toxicities (DLTs; defined as any toxicity related to study drug as assessed by the investigator and not attributable to the disease under investigation) in a cohort. […] If one patient in a group of […] evaluable patients experienced a DLT, the cohort was expanded to include six evaluable patients. […] If ≥2 patients in a group of up to six evaluable patients experienced a DLT, irrespective of the number of patients enrolled, the dose was considered not tolerated and recruitment to the cohort and dose escalation was ceased. De-escalation to a lower intermediary dose could be considered in order to better define the MTD.
# Based on emerging clinical data from the continuous dosing regimen of this study and data from the Western Study 1 (D3610C00001, NCT01226316), which was running in parallel with the Japanese study, an intermittent dosing regimen was also evaluated in Japanese patients and with a starting dose of 480 mg bid and a 4/3 dosing schedule.
# Safety and tolerability were assessed in terms of adverse events (AEs), serious adverse events (SAEs), deaths, laboratory data, vital signs, electrocardiogram (ECG), assessment of glucose metabolism, and physical examination. AEs were graded according to the Common Terminology Criteria for Adverse Events (CTCAE) version 4.0. Any AE occurring after the first dose of study treatment and within 30 days of the last dose of study treatment was included in the AE summaries.
# [3] = test system: Western patients with advanced solid malignancies; design: method as in earlier work; settings: 4/3 dosing schedule; cited from earlier work
# [4] = human, plasma, oral, single dose, 80 mg bid continuous cohort, n=3
# [5] = human, plasma, oral, single dose, 240 mg bid continuous cohort, n=7
# [6] = human, plasma, oral, single dose, 320 mg bid continuous cohort, n=6
# [7] = human, plasma, oral, single dose, 360 mg bid intermittent 4/3 cohort, n=8
# [8] = human, plasma, oral, single dose, 400 mg bid continuous cohort, n=5
# [9] = human, plasma, oral, single dose, 480 mg bid intermittent 4/3 cohort, n=6
# [10] = human, plasma, oral, single dose, 640 mg bid intermittent 2/5 cohort, n=6
# [11] = human, plasma, oral, single dose, Total, n=41
# [12] = multiple doses, 80 mg bid continuous, n=3
# [13] = multiple doses, 240 mg bid continuous, n=7
# [14] = multiple doses, 320 mg bid continuous, n=4
# [15] = multiple doses, 360 mg bid intermittent 4/3, n=7
# [16] = multiple doses, 400 mg bid continuous, n=4
# [17] = multiple doses, 480 mg bid intermittent 4/3, n=6
# [18] = multiple doses, 640 mg bid intermittent 2/5, n=6
structure (smiles),measurement,setting,value
NC1(C(=O)N[C@@H](CCO)c2ccc(Cl)cc2)CCN(c2ncnc3[nH]ccc23)CC1 [AZD5363],AUC,"[1]; human, plasma, oral, 80 mg, multiple doses, 80 mg bid continuous, n=3, read-out: AUCss",1520 ng·h/mL
same,AUC,"[1]; human, plasma, oral, 80 mg, single dose, 80 mg bid continuous cohort, n=3, read-out: AUC",1260 ng·h/mL
same,AUC,"[1]; human, plasma, oral, 240 mg, multiple doses, 240 mg bid continuous, n=7, read-out: AUCss",4840 ng·h/mL
same,AUC,"[1]; human, plasma, oral, 240 mg, single dose, 240 mg bid continuous cohort, n=7, read-out: AUC",3290 ng·h/mL
same,AUC,"[1]; human, plasma, oral, 320 mg, multiple doses, 320 mg bid continuous, n=4, read-out: AUCss",5770 ng·h/mL
same,AUC,"[1]; human, plasma, oral, 320 mg, single dose, 320 mg bid continuous cohort, n=6, read-out: AUC",7110 ng·h/mL
same,AUC,"[1]; human, plasma, oral, 360 mg, multiple doses, 360 mg bid intermittent 4/3, n=7, read-out: AUCss",5870 ng·h/mL
same,AUC,"[1]; human, plasma, oral, 360 mg, single dose, 360 mg bid intermittent 4/3 cohort, n=8, read-out: AUC",4770 ng·h/mL
same,AUC,"[1]; human, plasma, oral, 400 mg, multiple doses, 400 mg bid continuous, n=4, read-out: AUCss",9670 ng·h/mL
same,AUC,"[1]; human, plasma, oral, 400 mg, single dose, 400 mg bid continuous cohort, n=5, read-out: AUC",4670 ng·h/mL
same,AUC,"[1]; human, plasma, oral, 480 mg, multiple doses, 480 mg bid intermittent 4/3, n=6, read-out: AUCss",10900 ng·h/mL
same,AUC,"[1]; human, plasma, oral, 480 mg, single dose, 480 mg bid intermittent 4/3 cohort, n=6, read-out: AUC",7210 ng·h/mL
same,AUC,"[1]; human, plasma, oral, 640 mg, multiple doses, 640 mg bid intermittent 2/5, n=6, read-out: AUCss",14200 ng·h/mL
same,AUC,"[1]; human, plasma, oral, 640 mg, single dose, 640 mg bid intermittent 2/5 cohort, n=6, read-out: AUC",11400 ng·h/mL
same,AUC,"[1]; human, plasma, oral, multiple doses, Total, n=37, read-out: AUCss",6820 ng·h/mL
same,Tmax,"[1]; human, plasma, oral, single dose, all cohorts, read-out: tmax",1.98 h
same,Cmax,[1]; [4],217 ng/mL
same,Vd/F,[1]; [4],715 L
same,Tmax,"[1]; human, plasma, oral, single dose, 80 mg bid continuous cohort, n=3, read-out: t max",2 h
same,Cmax,[1]; [5],628 ng/mL
same,Vd/F,[1]; [5],682 L
same,Tmax,"[1]; human, plasma, oral, single dose, 240 mg bid continuous cohort, n=7, read-out: t max",1.9 h
same,Cmax,[1]; [6],1580 ng/mL
same,Vd/F,[1]; [6],370 L
same,Tmax,"[1]; human, plasma, oral, single dose, 320 mg bid continuous cohort, n=6, read-out: t max",1.98 h
same,Cmax,[1]; [7],1010 ng/mL
same,Vd/F,[1]; [7],681 L
same,Tmax,"[1]; human, plasma, oral, single dose, 360 mg bid intermittent 4/3 cohort, n=8, read-out: t max",1.99 h
same,Cmax,[1]; [8],1060 ng/mL
same,Vd/F,[1]; [8],777 L
same,Tmax,"[1]; human, plasma, oral, single dose, 400 mg bid continuous cohort, n=5, read-out: t max",1.97 h
same,Cmax,[1]; [9],1910 ng/mL
same,Vd/F,[1]; [9],502 L
same,Tmax,"[1]; human, plasma, oral, single dose, 480 mg bid intermittent 4/3 cohort, n=6, read-out: t max",1.02 h
same,Cmax,[1]; [10],2100 ng/mL
same,Vd/F,[1]; [10],587 L
same,Tmax,"[1]; human, plasma, oral, single dose, 640 mg bid intermittent 2/5 cohort, n=6, read-out: t max",2.02 h
same,Cmax,[1]; [11],1090 ng/mL
same,AUC,"[1]; human, plasma, oral, single dose, Total, n=41, read-out: AUC",5180 ng·h/mL
same,Vd/F,[1]; [11],595 L
same,half-life,"[1]; human, plasma, single oral doses",~10 h
same,"C ss,max",[1]; [12],318.3 (128.4) ng/mL
same,"t ss,max",[1]; [12],1 (0.98‒1.97) hours
same,"C ss,max",[1]; [13],874.4 (89.7) ng/mL
same,"t ss,max",[1]; [13],1.98 (0.97‒3.9) hours
same,"C ss,max",[1]; [14],1222 (53.7) ng/mL
same,"t ss,max",[1]; [14],1.465 (0.92‒2.12) hours
same,"C ss,max",[1]; [15],1366 (64.9) ng/mL
same,"t ss,max",[1]; [15],0.98 (0.5‒2) hours
same,"C ss,max",[1]; [16],2094 (56.6) ng/mL
same,"t ss,max",[1]; [16],2 (0.93‒2) hours
same,"C ss,max",[1]; [17],2670 (36.7) ng/mL
same,"t ss,max",[1]; [17],1.99 (1‒2.05) hours
same,"C ss,max",[1]; [18],2618 (20.0) ng/mL
same,"t ss,max",[1]; [18],2.01 (2‒3.97) hours
same,"C ss,max","[1]; multiple doses, Total, n=37",1430 (96.6) ng/mL
same,"t ss,max","[1]; multiple doses, Total, n=37",1.98 (0.5‒3.97) hours
same,"t ss,max","[1]; multiple dosing, all cohorts",1.98 (0.50–3.97) hours
same,dose proportionality of exposure,"[1]; single and multiple doses, 80- to 640-mg doses",generally dose proportional
same,t half,"[1]; single dose, 80 mg bid continuous cohort, n=3",11.8 (8.5‒12.2) hours
same,t half,"[1]; single dose, 240 mg bid continuous cohort, n=7",10.2 (8.2‒10.9) hours
same,t half,"[1]; single dose, 320 mg bid continuous cohort, n=6",9.7 (7.3‒10.6) hours
same,t half,"[1]; single dose, 360 mg bid intermittent 4/3 cohort, n=8",9.7 (5.3‒11.1) hours
same,t half,"[1]; single dose, 400 mg bid continuous cohort, n=5",9.6 (9.0‒13.0) hours
same,t half,"[1]; single dose, 480 mg bid intermittent 4/3 cohort, n=6",9.3 (8.1‒11.6) hours
same,t half,"[1]; single dose, 640 mg bid intermittent 2/5 cohort, n=6",10.1 (9.4‒13.7) hours
same,Tmax,"[1]; single dose, Total, n=41",1.98 (0.87‒4.02) hours
same,t half,"[1]; single dose, Total, n=41",9.9 (5.3‒13.7) hours
same,duration of distribution phase following Cmax,"[1]; single oral doses, generally lasting up to",6 to 8 h
same,AE with outcome of death: Any,"[2]; 80 mg bid continuous, n=3",0 (0.0) number (%) of patients
same,AE with outcome of death: Any,"[2]; 240 mg bid continuous, n=7",0 (0.0) number (%) of patients
same,AE with outcome of death: Any,"[2]; 320 mg bid continuous, n=6",0 (0.0) number (%) of patients
same,AE with outcome of death: Any,"[2]; 360 mg bid intermittent 4/3, n=8",0 (0.0) number (%) of patients
same,AE with outcome of death: Any,"[2]; 400 mg bid continuous, n=5",0 (0.0) number (%) of patients
same,AE with outcome of death: Any,"[2]; 480 mg bid intermittent 4/3, n=6",0 (0.0) number (%) of patients
same,AE with outcome of death: Any,"[2]; 640 mg bid intermittent 2/5, n=6",0 (0.0) number (%) of patients
same,AE with outcome of death: Any,"[2]; Total, n=41",0 (0.0) number (%) of patients
same,MTD,[2]; either of the intermittent dosing schedules,not reached
same,AEs of CTCAE grade ≥3: Any,"[2]; human, in vivo",26 (63.4) number (%) of patients
same,AEs of CTCAE grade ≥3: Diarrhea,"[2]; human, in vivo",7 (17.1) number (%) of patients
same,AEs of CTCAE grade ≥3: Hyperglycemia,"[2]; human, in vivo",16 (39.0) number (%) of patients
same,AEs of CTCAE grade ≥3: Lymphocyte count decreased,"[2]; human, in vivo",3 (7.3) number (%) of patients
same,AEs of CTCAE grade ≥3: Neutrophil count decreased,"[2]; human, in vivo",4 (9.8) number (%) of patients
same,AEs: Blood creatinine increased,"[2]; human, in vivo",14 (34.1) number (%) of patients
same,AEs: Decreased appetite,"[2]; human, in vivo",20 (48.8) number (%) of patients
same,AEs: Diarrhea,"[2]; human, in vivo",32 (78.0) number (%) of patients
same,AEs: Hyperglycemia,"[2]; human, in vivo",28 (68.3) number (%) of patients
same,AEs: Maculopapular rash,"[2]; human, in vivo",23 (56.1) number (%) of patients
same,AEs: Nausea,"[2]; human, in vivo",23 (56.1) number (%) of patients
same,AEs: Proteinuria,"[2]; human, in vivo",16 (39.0) number (%) of patients
same,AEs: Pyrexia,"[2]; human, in vivo",20 (48.8) number (%) of patients
same,AEs: Stomatitis,"[2]; human, in vivo",17 (41.5) number (%) of patients
same,AEs: White blood cell count decreased,"[2]; human, in vivo",13 (31.7) number (%) of patients
same,Adverse events (AEs): Any,"[2]; human, in vivo",40 (97.6) number (%) of patients
same,SAE: Any,"[2]; human, in vivo",3 (7.3) number (%) of patients
same,patients who experienced an AE of CTCAE grade ≥3,"[2]; human, in vivo",63.4%
same,patients who experienced at least one AE,"[2]; human, in vivo",97.6%
same,patients with AE diarrhea,"[2]; human, in vivo",78.0%
same,patients with AE hyperglycemia,"[2]; human, in vivo",68.3%
same,patients with AE maculopapular rash,"[2]; human, in vivo",56.1%
same,patients with AE nausea,"[2]; human, in vivo",56.1%
same,patients with AEs leading to dose interruption,"[2]; human, in vivo",39.0%
same,patients with CTCAE grade ≥3 diarrhea,"[2]; human, in vivo",17.1%
same,patients with CTCAE grade ≥3 hyperglycemia,"[2]; human, in vivo",39.0%
same,patients with a grade ≥3 AE considered to be treatment related,"[2]; human, in vivo",58.5%
same,patients with discontinuation due to an AE,"[2]; human, in vivo",12.2%
same,DLTs reported,[2]; in vivo,No DLTs
same,patients who experienced DLTs,[2]; in vivo,five
same,patients who experienced an SAE,[2]; in vivo,Three
same,deaths related to AEs,"[2]; overall, all cohorts",no deaths
same,recommended dose for AZD5363 monotherapy,[3],480 mg bid

# From PMC4819940 (Cancer Chemotherapy and Pharmacology, 2016)
